Where “and” joins values, the source holds several entries; their conditions need not be identical. Equal values may be shown once. Inconclusive results and toxic doses are left out.
Test system: P388 leukemia ip, CD2F1 mice, survival T/C
Assay: NCI In Vivo Anticancer Drug Screen. Data for tumor model P388 Leukemia (intraperitoneal) in CD2F1 (CDF1) mice
Settings: endpoint: median survival time, higher = longer survival
In short: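 Mice carrying the transplanted tumor received test compound or vehicle. Survival was recorded in each group, and the value is the treated-group measurement divided by that of the vehicle-treated control group.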

[1] = dose: 100.0 mg/kg/injection, schedule: Q04DX003 (ip), vehicle: saline with Tween-80
[2] = dose: 200.0 mg/kg/injection, schedule: Q04DX003 (ip), vehicle: saline with Tween-80
[3] = dose: 100.0 mg/kg/injection, schedule: Q04DX002 (ip), vehicle: saline with Tween-80
[4] = dose: 200.0 mg/kg/injection, schedule: Q04DX002 (ip), vehicle: saline with Tween-80
[5] = dose: 400.0 mg/kg/injection, schedule: Q04DX002 (ip), vehicle: saline with Tween-80
[6] = dose: 100.0 mg/kg/injection, schedule: Q04DX002 (ip), vehicle: Klucel (hydroxypropylcellulose) (HPC)
[7] = dose: 200.0 mg/kg/injection, schedule: Q04DX002 (ip), vehicle: Klucel (hydroxypropylcellulose) (HPC)
[8] = dose: 400.0 mg/kg/injection, schedule: Q04DX002 (ip), vehicle: Klucel (hydroxypropylcellulose) (HPC)
[9] = dose: 60.0 mg/kg/injection, schedule: Q01DX005 (ip), vehicle: saline with Tween-80
[10] = dose: 120.0 mg/kg/injection, schedule: Q01DX005 (ip), vehicle: saline with Tween-80
[11] = dose: 240.0 mg/kg/injection, schedule: Q01DX005 (ip), vehicle: saline with Tween-80
[12] = dose: 50.0 mg/kg/injection, schedule: Q01DX005 (ip), vehicle: saline with Tween-80
[13] = dose: 100.0 mg/kg/injection, schedule: Q01DX005 (ip), vehicle: saline with Tween-80
[14] = dose: 200.0 mg/kg/injection, schedule: Q01DX005 (ip), vehicle: saline with Tween-80
[15] = dose: 50.0 mg/kg/injection, schedule: Q01DX009 (ip), vehicle: Klucel (hydroxypropylcellulose) (HPC)
[16] = dose: 50.0 mg/kg/injection, schedule: Q01DX005 (ip), vehicle: Klucel (hydroxypropylcellulose) (HPC)
[17] = dose: 100.0 mg/kg/injection, schedule: Q01DX005 (ip), vehicle: Klucel (hydroxypropylcellulose) (HPC)

## CSC(=S)N(C)N
[1]
  T/C: 111 % of control
[2]
  T/C: 105 % of control
dose: 400.0 mg/kg/injection, schedule: Q04DX003 (ip), vehicle: saline with Tween-80
  T/C: 100 % of control

## CC(=O)Nc1nc(=O)c2c(n1C(C)=O)N(C(C)=O)C(=O)C2
[3]
  T/C: 103 % of control
[4]
  T/C: 103 % of control
[5]
  T/C: 100 % of control

## Cc1cc[n+](-c2c3c(nc4ccccc24)-c2ccccc2C(C)(C)C3)cc1
dose: 12.5 mg/kg/injection, schedule: Q01DX005 (ip), vehicle: saline
  T/C: 100 % of control
dose: 25.0 mg/kg/injection, schedule: Q01DX005 (ip), vehicle: saline
  T/C: 91 % of control
dose: 50.0 mg/kg/injection, schedule: Q01DX005 (ip), vehicle: saline
  T/C: 94 % of control
dose: 100.0 mg/kg/injection, schedule: Q01DX005 (ip), vehicle: saline
  T/C: 106 % of control

## NC(N)=NS(=O)(=O)c1ccc(NCc2c3ccccc3nc3ccccc23)cc1
dose: 3.12 mg/kg/injection, schedule: Q04DX002 (ip), vehicle: Klucel (hydroxypropylcellulose) (HPC)
  T/C: 114 % of control
dose: 12.5 mg/kg/injection, schedule: Q04DX002 (ip), vehicle: Klucel (hydroxypropylcellulose) (HPC)
  T/C: 165 % of control
dose: 25.0 mg/kg/injection, schedule: Q04DX002 (ip), vehicle: Klucel (hydroxypropylcellulose) (HPC)
  T/C: 172 % of control
dose: 50.0 mg/kg/injection, schedule: Q04DX002 (ip), vehicle: Klucel (hydroxypropylcellulose) (HPC)
  T/C: 166 % of control
dose: 50.0 mg/kg/injection, schedule: Q04DX003 (ip), vehicle: Klucel (hydroxypropylcellulose) (HPC)
  T/C: 151 % of control and 156 % of control
[6]
  T/C: 174 % of control
dose: 100.0 mg/kg/injection, schedule: Q04DX003 (ip), vehicle: Klucel (hydroxypropylcellulose) (HPC)
  T/C: 168 % of control and 169 % of control
[7]
  T/C: 151 % of control
dose: 200.0 mg/kg/injection, schedule: Q04DX003 (ip), vehicle: Klucel (hydroxypropylcellulose) (HPC)
  T/C: 174 % of control and 180 % of control
[8]
  T/C: 169 % of control
dose: 400.0 mg/kg/injection, schedule: Q04DX003 (ip), vehicle: Klucel (hydroxypropylcellulose) (HPC)
  T/C: 155 % of control and 202 % of control and 207 % of control
dose: 800.0 mg/kg/injection, schedule: Q04DX002 (ip), vehicle: Klucel (hydroxypropylcellulose) (HPC)
  T/C: 161 % of control
dose: 800.0 mg/kg/injection, schedule: Q04DX003 (ip), vehicle: Klucel (hydroxypropylcellulose) (HPC)
  T/C: 162 % of control and 210 % of control and 250 % of control

## Nc1ccccc1C(=O)CC1OC(=O)c2ccccc21 (centres undefined)
[9]
  T/C: 105 % of control
[10]
  T/C: 105 % of control
[11]
  T/C: 97 % of control

## COC(=O)c1ccccc1NC1=NS(=O)(=O)c2ccccc2N1C
[12]
  T/C: 87 % of control
[13]
  T/C: 86 % of control
[14]
  T/C: 87 % of control

## CN=C1c2ccccc2C2(c3ccccc3)C1N2C (centres undefined)
[1]
  T/C: 104 % of control
[2]
  T/C: 100 % of control

## Oc1ccccc1/C=N/NC(=S)NC1CC2C=CC1C2 (centres undefined)
dose: 12.5 mg/kg/injection, schedule: Q01DX009 (ip), vehicle: olive oil, sesame oil, peanut oil
  T/C: 100 % of control
dose: 25.0 mg/kg/injection, schedule: Q01DX009 (ip), vehicle: olive oil, sesame oil, peanut oil
  T/C: 102 % of control
dose: 50.0 mg/kg/injection, schedule: Q01DX009 (ip), vehicle: olive oil, sesame oil, peanut oil
  T/C: 97 % of control
dose: 100.0 mg/kg/injection, schedule: Q01DX009 (ip), vehicle: olive oil, sesame oil, peanut oil
  T/C: 97 % of control
dose: 200.0 mg/kg/injection, schedule: Q01DX009 (ip), vehicle: olive oil, sesame oil, peanut oil
  T/C: 102 % of control
dose: 400.0 mg/kg/injection, schedule: Q01DX009 (ip), vehicle: olive oil, sesame oil, peanut oil
  T/C: 97 % of control

## C[n+]1ccccc1/C=C/c1ccc2c(c1)OCO2
dose: 6.25 mg/kg/injection, schedule: Q01DX009 (ip), vehicle: Klucel (hydroxypropylcellulose) (HPC)
  T/C: 102 % of control
dose: 12.5 mg/kg/injection, schedule: Q01DX009 (ip), vehicle: Klucel (hydroxypropylcellulose) (HPC)
  T/C: 98 % of control
dose: 25.0 mg/kg/injection, schedule: Q01DX009 (ip), vehicle: Klucel (hydroxypropylcellulose) (HPC)
  T/C: 110 % of control
[15]
  T/C: 114 % of control

## CN=C1SC(C)(C)NN1C
dose: 12.5 mg/kg/injection, schedule: Q01DX005 (ip), vehicle: Klucel (hydroxypropylcellulose) (HPC)
  T/C: 104 % of control
dose: 25.0 mg/kg/injection, schedule: Q01DX005 (ip), vehicle: Klucel (hydroxypropylcellulose) (HPC)
  T/C: 104 % of control
[16]
  T/C: 101 % of control and 114 % of control

## O=c1c2[nH]c3ccccc3sc=2c(=O)n1-c1ccc(Cl)c(Cl)c1Cl
[3]
  T/C: 100 % of control
[4]
  T/C: 97 % of control
[5]
  T/C: 100 % of control

## OCC1OC(C2N(c3ccccc3)CCN2c2ccccc2)C(O)C1O (centres undefined)
dose: 12.5 mg/kg/injection, schedule: Q01DX009 (ip), vehicle: distilled water + Tween-80
  T/C: 102 % of control
dose: 25.0 mg/kg/injection, schedule: Q01DX009 (ip), vehicle: distilled water + Tween-80
  T/C: 100 % of control
dose: 50.0 mg/kg/injection, schedule: Q01DX009 (ip), vehicle: distilled water + Tween-80
  T/C: 98 % of control
dose: 100.0 mg/kg/injection, schedule: Q01DX009 (ip), vehicle: distilled water + Tween-80
  T/C: 90 % of control
dose: 200.0 mg/kg/injection, schedule: Q01DX009 (ip), vehicle: distilled water + Tween-80
  T/C: 93 % of control

## COc1cc2c(=O)n3c4c(cccc4c2cc1OC)CC3
dose: 25.0 mg/kg/injection, schedule: Q01DX009 (ip), vehicle: other
  T/C: 98 % of control
dose: 50.0 mg/kg/injection, schedule: Q01DX009 (ip), vehicle: other
  T/C: 91 % of control
dose: 100.0 mg/kg/injection, schedule: Q01DX009 (ip), vehicle: other
  T/C: 91 % of control
dose: 200.0 mg/kg/injection, schedule: Q01DX009 (ip), vehicle: other
  T/C: 89 % of control
dose: 400.0 mg/kg/injection, schedule: Q01DX009 (ip), vehicle: other
  T/C: 96 % of control

## CC(=O)OC1=CC(=O)N(C(=O)c2ccc(Cl)cc2)C1
[15]
  T/C: 109 % of control
dose: 100.0 mg/kg/injection, schedule: Q01DX009 (ip), vehicle: Klucel (hydroxypropylcellulose) (HPC)
  T/C: 115 % of control
dose: 200.0 mg/kg/injection, schedule: Q01DX009 (ip), vehicle: Klucel (hydroxypropylcellulose) (HPC)
  T/C: 115 % of control

## CC(C)(C)N(C(=O)OCC1c2ccccc2-c2ccccc21)C(CO)C(=O)O (centres undefined)
[16]
  T/C: 100 % of control
[17]
  T/C: 107 % of control

## COc1cc2c(cc1OC)-c1ccccc1COC2=O
[3]
  T/C: 102 % of control
[4]
  T/C: 93 % of control
[5]
  T/C: 92 % of control

## COc1ccc(C(=O)c2c(OC)cccc2C(=O)O)cc1
[16]
  T/C: 105 % of control
[17]
  T/C: 105 % of control
dose: 200.0 mg/kg/injection, schedule: Q01DX005 (ip), vehicle: Klucel (hydroxypropylcellulose) (HPC)
  T/C: 97 % of control

## N#Cc1ccc(OC(=O)Nc2cc(Cl)cc(Cl)c2)cc1
[9]
  T/C: 89 % of control
[10]
  T/C: 106 % of control
[11]
  T/C: 101 % of control

## COC1C(COC(=O)c2ccccc2)OC(OC(C)=O)C1OC(C)=O (centres undefined)
[12]
  T/C: 94 % of control
[13]
  T/C: 96 % of control
[14]
  T/C: 100 % of control

## CC(=O)CC(=O)N/N=C(N)/C(C#N)=N/N(C)c1ccccc1
[3]
  T/C: 97 % of control
[4]
  T/C: 94 % of control
[5]
  T/C: 96 % of control

## Cc1cccc(C(=O)O)n1
dose: 100.0 mg/kg/injection, schedule: Q04DX003 (ip), vehicle: saline
  T/C: 104 % of control
dose: 200.0 mg/kg/injection, schedule: Q04DX003 (ip), vehicle: saline
  T/C: 100 % of control
dose: 400.0 mg/kg/injection, schedule: Q04DX003 (ip), vehicle: saline
  T/C: 109 % of control

## O=C(O)c1cc2cccc(OCc3ccc(Cl)cc3Cl)c2cc1O
[6]
  T/C: 115 % of control
[7]
  T/C: 106 % of control
[8]
  T/C: 103 % of control

## O=C(NC1C=Nc2ccc(Cl)cc2NC1=O)c1ccc(Cl)cc1 (centres undefined)
dose: 60.0 mg/kg/injection, schedule: Q01DX005 (ip), vehicle: Klucel (hydroxypropylcellulose) (HPC)
  T/C: 91 % of control
dose: 120.0 mg/kg/injection, schedule: Q01DX005 (ip), vehicle: Klucel (hydroxypropylcellulose) (HPC)
  T/C: 91 % of control
dose: 240.0 mg/kg/injection, schedule: Q01DX005 (ip), vehicle: Klucel (hydroxypropylcellulose) (HPC)
  T/C: 93 % of control

## CC(C)CC(NCc1ccccc1)C(=O)O (centres undefined)
[12]
  T/C: 95 % of control
[13]
  T/C: 100 % of control
[14]
  T/C: 95 % of control

Reference: PubChem BioAssay AID330 (DTP/NCI, 2004)
